This passage reports IC50 results from patent US20050197350A1, “Novel quinoline, tetrahydroquinazoline, and pyrimidine derivatives and methods of treatment related to the use thereof” (TAISHO PHARMACEUTICAL CO., LTD., priority 2003, published 2005).

The target in this experiment is MCH receptor (Homo sapiens, UniProt Q99705). Briefly: High throughput functional screening FLIPR/FDSS6000 (intracellular Ca2+ evoked by MCH). It counts as cell-based. To be noted: FLIPR/FDSS, antagonist activity vs 50 nM MCH; class by percent of control at 10^−7 M or IC50; read-out: class. In outline: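 For antagonist testing, compound-treated cells (30 min, 37 °C) were stimulated with 50 nM MCH and intracellular Ca2+ followed by Fluo4 fluorescence on FLIPR/FDSS6000. Receptor was a constitutively active, non-endogenous MCH receptor; dye loading 4 μM Fluo4-AM, 1 h, 37 °C.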

A value given as a limit tells only on which side of the number the result lay.

For `Cc1cc(N(C)C)nc(N[C@H]2CC[C@@H](C(=O)NC(C)(C)c3cc(C(F)(F)F)cc(C(F)(F)F)c3)CC2)n1` [Example 3275, cis-N-{1-[3,5-bis(trifluoromethyl)phenyl]-1-methylethyl}-4-{[4-(dimethylamino)-6-methylpyrimidin-2-yl]amino}cyclohexanecarboxamide], the IC50 was more than 200 nM. For `COc1nc(N[C@H]2CC[C@@H](NC(=O)c3ccc(Cl)cc3)CC2)ncc1C` [Example 3276, 4-chloro-N-{cis-4-[(4-methoxy-5-methylpyrimidin-2-yl)amino]cyclohexyl}benzamide], the IC50 is more than 200 nM. `COc1nc(N[C@H]2CC[C@@H](NC(=O)c3ccc(OC(F)(F)F)cc3)CC2)ncc1C` [Example 3277, N-{cis-4-[(4-methoxy-5-methylpyrimidin-2-yl)amino]cyclohexyl}-4-(trifluoromethoxy)benzamide]: the IC50 is more than 200 nM. With `COc1nc(N[C@H]2CC[C@@H](NC(=O)c3ccc(Cl)c(Cl)c3)CC2)ncc1C` [Example 3278, 3,4-dichloro-N-{cis-4-[(4-methoxy-5-methylpyrimidin-2-yl)amino]cyclohexyl}benzamide], the IC50 is 50 to 200 nM. Take `COc1nc(N[C@H]2CC[C@@H](NC(=O)c3cc(Cl)cc(Cl)c3)CC2)ncc1C` [Example 3279, 3,5-dichloro-N-{cis-4-[(4-methoxy-5-methylpyrimidin-2-yl)amino]cyclohexyl}benzamide]: the IC50 is more than 200 nM. Take `COc1nc(N[C@H]2CC[C@@H](NC(=O)c3cc(C(F)(F)F)cc(C(F)(F)F)c3)CC2)ncc1C` [Example 3280, N-{cis-4-[(4-methoxy-5-methylpyrimidin-2yl)amino]cyclohexyl}-3,5-bis(trifluoromethyl)benzamide]: the IC50 was more than 200 nM. In the case of `Cc1cnc(N[C@H]2CC[C@@H](NC(=O)c3cccnc3S(=O)(=O)c3ccc(F)cc3)CC2)nc1N(C)C` [Example 3281, N-(cis-4-{[4-(dimethylamino)-5-methylpyrimidin-2-yl]amino}cyclohexyl)-2-[(4-fluorophenyl)sulfonyl]nicotinamide], the IC50 was less than 50 nM. Turning to `Cc1cnc(N[C@H]2CC[C@@H](NC(=O)c3cccnc3S(=O)(=O)c3ccc(Cl)cc3)CC2)nc1N(C)C` [Example 3282, 2-[(4-chlorophenyl)sulfonyl]-N-(cis-4-{[4-(dimethylamino)-5-methylpyrimidin-2-yl]amino}cyclohexyl)nicotinamide], the IC50 is less than 50 nM. For `Cc1cnc(N[C@H]2CC[C@@H](NC(=O)c3cccnc3S(=O)(=O)c3cccc(Cl)c3)CC2)nc1N(C)C` [Example 3283, 2-[(3-chlorophenyl)sulfonyl]-N-(cis-4-{[4-(dimethylamino)-5-methylpyrimidin-2-yl]amino}cyclohexyl)nicotinamide] the value was 50 to 200 nM.

On to `Cc1cnc(N[C@H]2CC[C@@H](NC(=O)c3cccnc3S(=O)(=O)c3ccccc3Cl)CC2)nc1N(C)C` [Example 3284, 2-[(2-chlorophenyl)sulfonyl]-N-(cis-4-{[4-(dimethylamino)-5-methylpyrimidin-2-yl]amino}cyclohexyl)nicotinamide], for which the IC50 lay within 50 to 200 nM. As for `Cc1cnc(N[C@H]2CC[C@@H](NC(=O)c3cccnc3S(=O)(=O)c3cccc(Br)c3)CC2)nc1N(C)C` [Example 3285, 2-[(3-bromophenyl)sulfonyl]-N-(cis-4-{[4-(dimethylamino)-5-methylpyrimidin-2-yl]amino}cyclohexyl)nicotinamide], the IC50 was in the range of 50 to 200 nM.

Regarding `COc1ccc(S(=O)(=O)c2ncccc2C(=O)N[C@H]2CC[C@@H](Nc3ncc(C)c(N(C)C)n3)CC2)cc1` [Example 3286, N-(cis-4-{[4-(dimethylamino)-5-methylpyrimidin-2-yl]amino}cyclohexyl)-2-[(4-methoxyphenyl)sulfonyl]-nicotinamide], the IC50 was more than 200 nM. `Cc1cnc(N[C@H]2CC[C@@H](NC(=O)c3cccnc3S(=O)(=O)c3cccc(C(F)(F)F)c3)CC2)nc1N(C)C` [Example 3287, N-(cis-4-{[4-(dimethylamino)-5-methylpyrimidin-2-yl]amino}cyclohexyl)-2-{[3-(trifluoromethyl)phenyl]sulfonyl}-nicotinamide]: the IC50 is 50 to 200 nM. Take `Cc1ccc(S(=O)(=O)c2ncccc2C(=O)N[C@H]2CC[C@@H](Nc3ncc(C)c(N(C)C)n3)CC2)cc1` [Example 3288, N-(cis-4-{[4-(dimethylamino)-5-methylpyrimidin-2-yl]amino}cyclohexyl)-2-[(4-methylphenyl)sulfonyl]nicotinamide]: the IC50 is 50 to 200 nM. Consider `Cc1cnc(N[C@H]2CC[C@@H](NC(=O)c3cccnc3S(=O)(=O)c3ccc(Br)cc3)CC2)nc1N(C)C` [Example 3289, 2-[(4-bromophenyl)sulfonyl]-N-(cis-4-{[4-(dimethylamino)-5-methylpyrimidin-2-yl]amino}cyclohexyl)nicotinamide], for which the IC50 was 50 to 200 nM. `Cc1cnc(N[C@H]2CC[C@@H](NC(=O)c3cccnc3S(=O)(=O)c3ccoc3C)CC2)nc1N(C)C` [Example 3290, N-(cis-4-{[4-(dimethylamino)-5-methylpyrimidin-2-yl]amino}cyclohexyl)-2-[(2-methyl-3-furyl)sulfonyl]nicotinamide]: the IC50 is more than 200 nM. For `Cc1cnc(N[C@H]2CC[C@@H](NC(=O)c3cccnc3S(=O)(=O)c3ccc(C(F)(F)F)cc3)CC2)nc1N(C)C` [Example 3291, N-(cis-4-{[4-(dimethylamino)-5-methylpyrimidin-2-yl]amino}cyclohexyl)-2-{[4-(trifluoromethyl)phenyl]sulfonyl}-nicotinamide], the IC50 was 50 to 200 nM. As to `Cc1cnc(N[C@H]2CC[C@@H](C(=O)N[C@@H](C)c3ccc(Cl)cc3)CC2)nc1N(C)C` [Example 3292, cis-N-[(1S)-1-(4-chlorophenyl)ethyl]-4-{[4-(dimethylamino)-5-methylpyrimidin-2-yl]amino}cyclohexanecarboxamide], the IC50 lay within 50 to 200 nM.

With `Cc1cnc(N[C@H]2CC[C@@H](C(=O)N[C@@H](C)c3cc(C(F)(F)F)cc(C(F)(F)F)c3)CC2)nc1N(C)C` [Example 3293, cis-N-{(1S)-1-[3,5-bis(trifluoromethyl)phenyl]ethyl}-4-{[4-(dimethylamino)-5-methylpyrimidin-2-yl]amino}cyclohexanecarboxamide], the IC50 was more than 200 nM.

Regarding `Cc1cnc(N[C@H]2CC[C@@H](C(=O)N[C@H](C)c3ccccc3F)CC2)nc1N(C)C` [Example 3294, cis-4-{[4-(dimethylamino)-5-methylpyrimidin-2-yl]aminol}-N-[(1R)-1-(2-fluorophenyl)ethyl]cyclohexanecarboxamide], the IC50 was more than 200 nM. For `Cc1cnc(N[C@H]2CC[C@@H](C(=O)N[C@@H](C)c3ccccc3F)CC2)nc1N(C)C` [Example 3295, cis-4-{[4-(dimethylamino)-5-methylpyrimidin-2-yl]amino}-N-[(1S)-1-(2-fluorophenyl)ethyl]cyclohexanecarboxamide], the IC50 was more than 200 nM.

Take `Cc1cnc(N[C@H]2CC[C@@H](C(=O)N[C@H](C)c3ccc(Br)cc3)CC2)nc1N(C)C` [Example 3297, cis-N-[(1R)-1-(4-bromophenyl)ethyl]-4-{[4-(dimethylamino)-5-methylpyrimidin-2-yl]amino}cyclohexanecarboxamide]: the IC50 lay within 50 to 200 nM.

Consider `Cc1cnc(NC2CCC(C(=O)N[C@@H](C)c3cccc(C(F)(F)F)c3)CC2)nc1N(C)C` (stereo partly drawn) [Example 3298, 4-{[4-(dimethylamino)-5-methylpyrimidin-2-yl]amino}-N-{(1S)-1-[3-(trifluoromethyl)phenyl]ethyl}cyclohexanecarboxamide], for which the IC50 is less than 50 nM. The figure for `Cc1cnc(NC2CCC(C(=O)N[C@H](C)c3cccc(C(F)(F)F)c3)CC2)nc1N(C)C` (stereo partly drawn) [Example 3299, 4-{[4-(dimethylamino)-5-methylpyrimidin-2-yl]amino}-N-{(1R)-1-[3-(trifluoromethyl)phenyl]ethyl}cyclohexanecarboxamide] is less than 50 nM; for `Cc1cnc(NC2CCC(C(=O)N[C@@H](C)c3ccccc3C(F)(F)F)CC2)nc1N(C)C` (stereo partly drawn) [Example 3300, 4-{[4-(dimethylamino)-5-methylpyrimidin-2-yl]amino}-N-{(1S)-1-[2-(trifluoromethyl)phenyl]ethyl}cyclohexanecarboxamide] it is less than 50 nM. In the case of `Cc1cnc(NC2CCC(C(=O)N[C@H](C)c3ccccc3C(F)(F)F)CC2)nc1N(C)C` (stereo partly drawn) [Example 3301, 4-{[4-(dimethylamino)-5-methylpyrimidin-2-yl]amino}-N-{(1R)-1-[2-(trifluoromethyl)phenyl]ethyl}cyclohexanecarboxamide], the IC50 is more than 200 nM. In the case of `Cc1cnc(N[C@H]2CC[C@@H](C(=O)N[C@@H](C)c3ccc(OC(F)(F)F)cc3)CC2)nc1N(C)C` [Example 3302, cis-4-{[4-(dimethylamino)-5-methylpyrimidin-2-yl]amino}-N-{(1S)-1-[4-(trifluoromethoxy)phenyl]ethyl}-cyclohexanecarboxamide], the IC50 was less than 50 nM. In the case of `Cc1cnc(N[C@H]2CC[C@@H](C(=O)N[C@H](C)c3ccc(OC(F)(F)F)cc3)CC2)nc1N(C)C` [Example 3303, cis-4-{[4-(dimethylamino)-5-methylpyrimidin-2-yl]amino}-N-{(1R)-1-[4-(trifluoromethoxy)phenyl]ethyl}-cyclohexanecarboxamide], the IC50 was 50 to 200 nM. Turning to `Cc1cc(N[C@H]2CC[C@@H](C(=O)N[C@@H](C)c3ccc(Br)cc3)CC2)nc2ccccc12` [Example 3304, cis-N-[(1S)-1-(4-bromophenyl)ethyl]-4-[(4-methylquinolin-2-yl)amino]cyclohexanecarboxamide], the IC50 is more than 200 nM. The figure for `Cc1cc(N[C@H]2CC[C@@H](C(=O)N[C@H](C)c3ccc(Cl)cc3)CC2)nc2ccccc12` [Example 3305, cis-N-[(1R)-1-(4-chlorophenyl)ethyl]-4-[(4-methylquinolin-2-yl)amino]cyclohexanecarboxamide] is 50 to 200 nM.
